Test results published in paper PMC8875489, “Pharmaceutical and Safety Profile Evaluation of Novel Selenocompounds with Noteworthy Anticancer Activity” (Pharmaceutics, 2022).
“Also recorded” adds a separate entry of the source.

Tests used:
[1] = test system: human liver microsomes (HLMs); assay: In vitro microsomal biotransformation test with TRIS buffer and solvent controls (LC-MS/MS); assay type: in vitro ADME; details: for stability in DMSO: organic solvent, LC-MS/MS
Procedure: The assessment of the metabolites generated in the in vitro microsomal biotransformation of the selenoester EDA-71 in liver microsomes was performed following a previously described protocol with minor modifications. Only this compound was evaluated because it combined an optimal solubility to be analyzed in this procedure with very significant activity. The protocol is provided in full detail in the Supplementary Materials. Briefly, the compound was exposed to microsomes for 2 h, and the mixture was later analyzed with LC–MS/MS to detect the generated metabolites.
In the next step of the research, a biochemical in vitro method with the use of human liver microsomes (HLMs) was applied to determine the metabolic activity of the compound EDA-71. This human liver microsomal model provides all the enzymes required for the phase I metabolism reactions (hydrolysis, oxidation, and reduction). Moreover, it is also possible, in certain conditions following the addition of all necessary cofactors, to conduct metabolism II phase reactions (glutathione transferase and N-acetyltransferase enzymatic reactions). In the drug discovery process, the microsomal is a standard in vitro method for the metabolism evaluation. Additionally, this assay can predict the biotransformation kinetics and intrinsic clearance of new derivatives. Finally, these biotransformation processes can be easily monitored with LC–MS/MS.
The NADPH-regenerating system, which contained a phosphate buffer (pH = 7.4; NADP^+, glucose-6-phosphate, and glucose-6-phosphate dehydrogenase), was used. The biotransformation process was monitored with the LC–MS/MS method at the end of the procedure at 2 h after the incubation.
This experimental fact prevented the detailed analysis of metabolic stability. […] Thus, the tested compounds were dissolved in DMSO immediately before the experiment to minimize the degradation risk. […]
1.4. In vitro metabolic stability evaluation in microsomes
1.4.1. Microsomal metabolic stability protocol
For the microsomal stability assay, the selenoester EDA-71 was selected. Before the experimental procedure, the HLMs and solutions necessary for preparing the regenera-tion fraction were stored at -80° C and TRIS buffer at 4° C. The NADP+ regeneration frac-tion was prepared freshly, at the day of the experiment.
1.4.2. Preparation of the working solutions and microsomal regeneration fraction In the first step of the experiment, after selection of the compounds, the 1000 μM working solution was prepared in the TRIS buffer (0.1 M, pH 7.5) from the 10 mM stocks in DMSO. Then, the fresh regeneration fraction was prepared from the 220 μL TRIS buffer, 25 μL of the “A” solution and 5 μL of the “B” solution.
1.4.3. Human liver microsomes and solvent controls
Further, two controls have been prepared: solvent control (142 μL of TRIS buffer with 8 μL of HLMs, 50 μL of the regeneration fraction and 200 μL of the pure methanol) and tested compound control (190 μL of TRIS buffer with 10 μL of the 1 mM tested compound solution and 200 μL of methanol). The biotransformation was carried out at the precise concentration of 1 mg/mL of HLMs.
1.4.4. Biotransformation performance
In the next step 132 μL of TRIS buffer were added into a sterile eppendorf. After that, 10 μL of 1000 μM solution of tested compound in TRIS buffer were added to the above-mentioned eppendorf and then, 8 μL of HLMs. The final concentration of tested com-pound was 50 μM. After gently mixing on the vortex, reaction mixture was preincubated for 5 minutes at 37° C on the thermoblock. Then, in the further step, the reaction was ini-tiated by adding 50 μL of the NADP+ regeneration fraction and incubated at 37° C for 2 h.
After that time, to terminate the reaction, the 200 μL of pure, cold methanol (for LC-MS/MS analysis) was added to probe, which contained the tested compound with HLMs.
Moreover, the same amount of cold methanol was added into the control sample with […]

[2] = test system: Salmonella Typhimurium TA100 strain; assay: Reference experiment: impact on Salmonella Typhimurium growth (OD600); assay type: cell-based, Salmonella enterica serovar Typhimurium; details: 1 and 10 µM, 20 h, 37 °C
Procedure: Therefore, a reference experiment with 20 h of incubation at constant temperature conditions (37 °C) was performed in order to determine the effect of the tested compounds on the growth of the Salmonella Typhimurium used in the Ames test. […] Therefore, this method could be successfully applied to determine the safety profile of the tested derivatives.
it indicated the occurrence of cytotoxic events.
Salmonella Typhimurium growth
microplate assay. During the experiment, Salmonella Typhimurium TA100 strain was cul-
At the day of the experiment,
tions of 25 μM and 250 μM) respectively. The final compound and mutagenic agent con-
References in Supplementary (same numeration than in manuscript)
Appl Biochem Biotechnol, 2018, 184(1), 124-139.
Karczewska, E.; Kieć-Kononowicz, K.; Handzlik, J.; Jacob, C. Pronounced activity of aromatic selenocyanates against multidrug
Chem Biol Drug Res, 2017, 90(6), 1295-1306.
Drug Des Devel Ther, 2016,
icity of Environmental Samples. Environ Mol Mutagen, 2010, 51(1), 31-38.
stranded DNA is characterized by guanine to pyrimidine transversions. Nucleic Acids Res, 1992, 20(6), 1283-1287.

Row | SMILES | stability in DMSO [1] | effect on the growth of Salmonella Typhimurium [2] | stability in TRIS buffer and LC-MS/MS analysis conditions ([1]; TRIS buffer pH = 7.4, control of microsomal assay)
1 | COC(=O)C[Se]C(=O)c1cc(OC)cc(OC)c1 [EDA-58, methyl 2-((3,5-dimethoxybenzoyl)selanyl)acetate] | stable |  | 
2 | C[Se]C(=O)c1ccc(C(=O)[Se]C)s1 [EDA-122, Se,Se-dimethyl thiophene-2,5-bis(carboselenoate)] | stable |  | 
3 | C[Se]C(=O)c1ccc(C(=O)[Se]C)cc1 [EDA-109, Se,Se-dimethyl benzene-1,4-bis(carboselenoate)] |  | stimulating effect on the growth | 
4 | CC(=O)C[Se]C(=O)c1ccc(Cl)cc1 [EDA-71, Se-(2-oxopropyl) 4-chlorobenzoselenoate] | stable |  | may not be stable; also recorded: unstable
5 | C[Se]C(=O)c1cccc(C(=O)[Se]C)n1 [EDA-119, Se,Se-dimethyl pyridine-2,6-bis(carboselenoate)] | stable |  | 
6 | O=C1[Se]C(=O)c2ccccc21 [EDA-A6, benzo[c]selenophene-1,3-dione] | stable |  | 
